We go through nine molecules from patent publication US10787441B2, “Hepatitis C virus inhibitors” (priority 2016, dated 2020).

Molecules are shown by their SMILES. Like-named read-outs stand apart in the source and are kept apart here.

Common to all, as to assay type: cell-based, Hepatitis C virus
Experiment [1] has as its system HCV genotype 1b Con1 strain subgenomic luciferase replicon. The experiment is described as follows: HCV replicon assay, genotype 1b. As for the experimental part:
(§1) The HCV luciferase replicon assay measures the ability of a test compound to inhibit HCV replication in cell culture after 3 days of treatment in a human hepatoma cell line (Huh-7) bearing an HCV replicon containing a luciferase-neomycin phosphotransferase fusion gene. The inhibition of HCV replication was measured by quantification of luciferase protein expression. Briefly, Huh-7 cells containing either the HCV genotype 1a H77 strain or genotype 1b Con1 strain subgenomic luciferase replicon (H1a-luc or Zluc, respectively) were grown in DMEM containing glucose, L-glutamine and sodium pyruvate, 10% fetal bovine serum (FBS), 100 IU/mL penicillin, 100 μg/mL streptomycin, 2 mM GlutaMAX, non-essential amino acids and 0.25 (H1a-luc) or 0.5 (Zluc) mg/mL G418. GlutaMAX was obtained from Invitrogen, Corp.; all other media reagents were obtained from Mediatech, Inc. For dose-response testing, the cells were seeded in 96-well plates at 1×10^4 (H1a-luc) or 7.5×10^3 (Zluc) cells/well in a volume of 50 μL, and incubated at 37° C./5% CO2. Three hours after plating, 50 μL of ten 5-fold serial dilutions of compound were added, and cell cultures were incubated at 37° C./5% CO2 for 72 hours. In all cases, Huh-7 cells lacking the HCV replicon served as negative control. To assess luciferase expression, the media/compound was removed from the plates and ONE-glo Luciferase assay reagent (Promega) was added to each well. The assay plates were shaken for 3 minutes at room temperature and luciferase activity for each well was measured with a 1 sec read time on the Victor^3V multilabel counter using a 700 nm cut-off filter (Perkin Elmer). EC50 values were calculated from dose response curves from the resulting best-fit equations determined by Microsoft Excel and XLfit 4.1 software.
Background: In antiviral work, replicon cells carry a viral genome segment that copies itself.

For experiment [2], the system named is HCV genotype 1a H77 strain subgenomic luciferase replicon. Briefly: HCV replicon assay, genotype 1a. As for the experimental part:
as §1

The next experiment relates to HCV 2b. Briefly: HCV replicon assay, genotype 2b.
Experiment [3] concerns HCV genotype 3a NS5A within the 1b-replicon. Briefly: HCV replicon assay, genotype 3a (NS5A intergenotypic stable cell line).
Text: The nucleotide sequences of the NS5A region of genotype 2a (GenBank Accession # AB047639), genotype 3a (GenBank Accession # D17763), and genotype 4a (GenBank Accession # DQ418788) were synthesized by an outside vendor. The NS5A region of each of these genotypes included the first 11 amino acids of the protease recognition sequence of genotype 1b, as well as the last 10 amino acids of genotype 1b. The NS5A gene cassettes were excised with site specific restriction endonucleases and ligated into a ZS11-luciferase genotype 1b backbone (backbone contains the genotype 1b NS3 protease, NS4a, NS4b, and NS5b coding regions) with similarly cut restriction enzyme sites. Thus, the newly constructed plasmid contains a genotype 2a-, 3a- or 4a-specific NS5A gene within the 1b-replicon.
These new intergenotypic plasmids were used to establish stable cell lines. RNA was generated from the NS5A intergenotypic plasmids and used in conjunction with a lipofectin reagent to transfect a cured Huh7 cell line. Transfected cells were selected for with G418. After selection has occurred the stable cell lines were propagated, tested for luciferase activity, and RT-PCR with genotype specific primers (either 1a, 2a, 3a, or 4a). Stable cell lines containing the intergenotypic replicon were then fully sequenced and analyzed for proper expression of NS3, NS5A and NS5B proteins.
Drug titration analysis was performed using the luciferase replicon assay described herein.
as §1

Experiment [4] relates to HCV 1aY93H mutant replicon. The experiment is described as follows: HCV replicon assay, genotype 1a Y93H mutant. The method, then:
General procedure: The luciferase replicon transient transfection assay measures the ability of a test compound to inhibit the replication of a transiently-transfected HCV luciferase-bearing wild-type or mutant replicon in cured human hepatoma cells (Huh7.5). The inhibition of HCV replication was measured by quantification of luciferase protein expression. This assay has been validated using a panel of genotype 1a and 1b replicons bearing mutations known to be associated with resistance to BMS-790052. Briefly, subconfluent Huh7.5 cells were electroporated with 10 μg of wild-type or mutant luciferase-bearing HCV replicon RNA. The cells were then seeded in 96-well opaque white plates at 3×10^4 cells/well in 150 μL/well and incubated for 4 hrs at 37° C./5% CO2. Ten 1:5 serial dilutions of each test compound were made in media (DMEM containing glucose, L-glutamine and sodium pyruvate, 10% fetal bovine serum, 100 IU/mL penicillin, 100 μg/mL streptomycin, 2 mM GlutaMAX, and 1×MEM non-essential amino acids (Mediatech, Inc. and Invitrogen Corp.)) at concentrations that were 4× higher than the final concentrations to be tested and 50 μL/well was added to the transfected cells. Untreated, mock-transfected cells served as a negative control of luciferase expression. The plates were incubated at 37° C./5% CO2 for 4 days whereupon the media was removed and 50 μL of ONE-glo luciferase substrate (Promega) was added to each well. The plates were agitated on a rotating platform at room temperature for 3 min and read in a Victor^3V microplate reader (Perkin-Elmer) using a 700 nm cut-off filter with a 1 sec read time. EC50 values were calculated from dose response curves from the resulting best-fit equations determined by Microsoft Excel and XLfit 4.1 software.

Where [5] appears, read: Hepatitis C virus, read-out: 1a IC50 (nM), HCV genotype 1a.
The mark [6] stands for this setting: Hepatitis C virus, read-out: 2b IC50 (nM), HCV genotype 2b.
The mark [7] stands for this setting: Hepatitis C virus, read-out: 3a IC50 (nM), HCV genotype 3a.
The mark [8] stands for this setting: Hepatitis C virus, read-out: 1aY93H IC50 (nM), HCV genotype 1a, Y93H mutant.
Setting [9] is: read-out: 1a IC50, HCV genotype 1a.
The mark [10] stands for this setting: read-out: 3a IC50, HCV genotype 3a.
The mark [11] stands for this setting: read-out: 1aY93H IC50, HCV genotype 1a, Y93H mutant.
[12] abbreviates: read-out: 2b IC50, HCV genotype 2b.

A word on the IC50: it is the concentration at which inhibition is half-maximal. As to `CCC1(CC)c2ccc(-c3cnc([C@H]4CCCN4C(=O)[C@@H](NC(=O)OC)C4CCOCC4)[nH]3)cc2Oc2ccc3cc(-c4cnc([C@H]5CCCN5C(=O)[C@H](NC(=O)OC)C5CCOCC5)[nH]4)ccc3c21` [Compound 16, methyl [(1R)-2-[(2R)-2-{5-[12,12-diethyl-9-(2-{(2R)-1-[(2S)-2-[(methoxycarbonyl)amino]-2-(tetrahydro-2H-pyran-4-yl)acetyl]pyrrolidin-2-yl}-1H-imidazol-5-yl)-12H-benzo[a]xanthen-3-yl]-1H-imidazol-2-yl}pyrrolidin-1-yl]-2-oxo-1-(tetrahydro-2H-pyran-4-yl)ethyl]carbamate], the IC50 in experiment [1] (Hepatitis C virus) was found to be 0.0044 nM; in experiment [2] (setting [5]), 0.0036 nM; with HCV 2b (setting [6]) it was 0.032 nM; in experiment [3] (setting [7]), 0.015 nM; in experiment [4] (setting [8]) it was 0.072 nM.
Consider `COC(=O)N[C@H](C(=O)N1CCC[C@H]1c1ncc(-c2ccc3c(ccc4oc5ccc(-c6cnc([C@@H]7CCCN7C(=O)[C@@H](NC(=O)OC)C(C)C)[nH]6)cc5c(=O)c43)c2)[nH]1)C(C)C` [Compound 25, methyl [(1S)-1-({(2S)-2-[5-(10-{2-[(2S)-1-{(2S)-2-[(methoxycarbonyl)amino]-3-methylbutanoyl}pyrrolidin-2-yl]-1H-imidazol-5-yl}-12-oxo-12H-benzo[a]xanthen-3-yl)-1H-imidazol-2-yl]pyrrolidin-1-yl}carbonyl)-2-methylpropyl]carbamate], for which the IC50 was 0.107 nM in experiment [1] (Hepatitis C virus); 0.167 nM in experiment [2] (setting [5]); at least 100 nM in the experiment with HCV 2b (setting [6]); at least 1 nM in experiment [3] (setting [7]); at least 100 nM in experiment [4] (setting [8]).
For `COC(=O)N[C@H](C(=O)N1C[C@H](F)C[C@H]1c1ncc(-c2ccc3c(F)c4oc5ccc(-c6cnc([C@@H]7C[C@@H](F)CN7C(=O)[C@@H](NC(=O)OC)C(C)C)[nH]6)cc5c(=O)c4cc3c2)[nH]1)C(C)C` [Compound 29, methyl [(1S)-1-({(2S,4R)-4-fluoro-2-[5-(6-fluoro-9-{2-[(2S,4R)-4-fluoro-1-{(2S)-2-[(methoxycarbonyl)amino]-3-methylbutanoyl}pyrrolidin-2-yl]-1H-imidazol-5-yl}-12-oxo-12H-benzo[b]xanthen-2-yl)-1H-imidazol-2-yl]pyrrolidin-1-yl}carbonyl)-2-methylpropyl]carbamate], the IC50 in experiment [1] (Hepatitis C virus) was 1 nM; in experiment [2] (setting [5]), at least 1 nM; with HCV 2b (setting [6]), at least 100 nM; in experiment [3] (setting [7]), at least 1 nM; in experiment [4] (setting [8]), at least 100 nM.
Take `COC(=O)N[C@H](C(=O)N1CCC[C@H]1c1ncc(-c2ccc3c(F)c4oc5ccc(-c6cnc([C@@H]7CCCN7C(=O)[C@@H](NC(=O)OC)C(C)C)[nH]6)cc5c(=O)c4cc3c2)[nH]1)C(C)C` [Compound 26, methyl [(1S)-1-({(2S)-2-[5-(6-fluoro-9-{2-[(2S)-1-{(2S)-2-[(methoxycarbonyl)amino]-3-methylbutanoyl}pyrrolidin-2-yl]-1H-imidazol-5-yl}-12-oxo-12H-benzo[b]xanthen-2-yl)-1H-imidazol-2-yl]pyrrolidin-1-yl}carbonyl)-2-methylpropyl]carbamate]: the IC50 was 1 nM in experiment [1] (Hepatitis C virus); at least 1 nM in experiment [2] (setting [5]); at least 100 nM with HCV 2b (setting [6]); at least 1 nM in experiment [3] (setting [7]); at least 100 nM in experiment [4] (setting [8]).
Regarding `CCC1c2ccc(-c3cnc([C@@H]4CCCN4C(=O)[C@@H](NC(=O)OC)C4CCOCC4)[nH]3)cc2Oc2ccc3cc(-c4cnc([C@@H]5CCCN5C(=O)[C@@H](NC(=O)OC)C5CCOCC5)[nH]4)ccc3c21` (single isomer, unassigned) [Compound 15], the IC50 in experiment [1] (Hepatitis C virus) was found to be 0.0036 nM; in experiment [2] (setting [9]), 0.0098 nM; with HCV 2b (setting [6]), 0.292 nM; in experiment [3] (setting [10]), 0.218 nM; in experiment [4] (setting [11]), 0.826 nM.
`COC(=O)N[C@H](C(=O)N1CCC[C@H]1c1ncc(-c2ccc3c(c2)Oc2ccc4cc(-c5cnc([C@@H]6CCCN6C(=O)[C@@H](NC(=O)OC)C6CCOCC6)[nH]5)ccc4c2C3(C)C)[nH]1)C1CCOCC1` [Compound 13, dimethyl [(12,12-dimethyl-12H-benzo[a]xanthene-3,9-diyl)bis{1H-imidazole-5,2-diyl(2S)pyrrolidine-2,1-diyl[(1S)-2-oxo-1-(tetrahydro-2H-pyran-4-yl)ethane-2,1-diyl]}]biscarbamate]: the IC50 in experiment [1] (Hepatitis C virus) turned out to be 0.004 nM; in experiment [2] (setting [5]) it was 0.0023 nM; in the experiment with HCV 2b (setting [6]), 0.254 nM; in experiment [3] (setting [7]), 0.084 nM; in experiment [4] (setting [8]), 0.682 nM.
For the molecule `COC(=O)N[C@H](C(=O)N1CCC[C@H]1c1ncc(-c2ccc3c(c2)Oc2ccc4cc(-c5cnc([C@@H]6CCCN6C(=O)[C@@H](NC(=O)OC)C(C)C)[nH]5)ccc4c2C3C)[nH]1)C(C)C` (single isomer, unassigned) [Compound 3], the IC50 in experiment [1] was found to be 0.0016 nM; in experiment [2] (setting [9]), 0.0022 nM; in the experiment on HCV 2b (setting [12]), 1.95 nM; in experiment [3] (setting [10]), 0.721 nM; in experiment [4] (setting [11]), 7.15 nM.
With `COC(=O)N[C@H](C(=O)N1CCC[C@H]1c1ncc(-c2ccc3c(c2)Oc2ccc4cc(-c5cnc([C@@H]6CCCN6C(=O)[C@@H](NC(=O)OC)C(C)C)[nH]5)ccc4c2C3C)[nH]1)C(C)C` (single isomer, unassigned) [Compound 2], the IC50 in experiment [1] came to 0.0036 nM; in experiment [2] (setting [9]), 0.0046 nM; in the experiment on HCV 2b (setting [12]), 37.1 nM; in experiment [3] (setting [7]), 1.38 nM; in experiment [4] (setting [8]), 10.6 nM.
Take `COC(=O)N[C@H](C(=O)N1CCC[C@H]1c1ncc(-c2ccc3c(c2)Oc2ccc4cc(-c5cnc([C@@H]6CCCN6C(=O)[C@@H](NC(=O)OC)C6CCOCC6)[nH]5)ccc4c2C3C)[nH]1)C1CCOCC1` (single isomer, unassigned) [Compound 12]: the IC50 was determined as 0.0056 nM in experiment [1]; 0.0045 nM in experiment [2] (setting [9]); 0.495 nM with HCV 2b (setting [12]); 0.055 nM in experiment [3] (setting [10]); 0.548 nM in experiment [4] (setting [11]).
